# Laboratory results: PubChem BioAssay (NCI)
#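 Exposure lasted 48 hours, with cells grown in 96-well plates and compounds tested at five concentrations. GI50: concentration for 50% inhibition of growth. Definition used: TGI = concentration required for complete inhibition of growth.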
# Assays:
# Assay in all cases: DTP human tumour cell line panel, 48 h
# OVCAR-4 ovarian = test system: OVCAR-4 ovarian
# NCI-H226 lung = test system: NCI-H226 lung
# RXF 393 renal = test system: RXF 393 renal
# UO-31 renal = test system: UO-31 renal
# 786-0 renal = test system: 786-0 renal
# SF-295 CNS = test system: SF-295 CNS
# MCF7 breast = test system: MCF7 breast
# HCT-116 colon = test system: HCT-116 colon
# HOP-62 NSCLC = test system: HOP-62 NSCLC
# IGROV1 ovarian = test system: IGROV1 ovarian
# DU-145 prostate = test system: DU-145 prostate
# COLO 205 colon = test system: COLO 205 colon
# PC-3 prostate = test system: PC-3 prostate
# SF-268 CNS = test system: SF-268 CNS
# SN12C renal = test system: SN12C renal
# BT-549 breast = test system: BT-549 breast
# SK-MEL-28 melanoma = test system: SK-MEL-28 melanoma
# HS 578T breast = test system: HS 578T breast
# ACHN renal = test system: ACHN renal
# CAKI-1 renal = test system: CAKI-1 renal
# SNB-19 CNS = test system: SNB-19 CNS
# UACC-257 melanoma = test system: UACC-257 melanoma
# UACC-62 melanoma = test system: UACC-62 melanoma
# TK-10 renal = test system: TK-10 renal
# HOP-92 NSCLC = test system: HOP-92 NSCLC
# NCI-H522 lung = test system: NCI-H522 lung
# HCC-2998 colon = test system: HCC-2998 colon
# A549 NSCLC = test system: A549 NSCLC
# SK-MEL-5 melanoma = test system: SK-MEL-5 melanoma
# SF-539 CNS = test system: SF-539 CNS
# OVCAR-8 ovarian = test system: OVCAR-8 ovarian
# MDA-MB-435 = test system: MDA-MB-435
# NCI/ADR-RES ovarian = test system: NCI/ADR-RES ovarian
# EKVX NSCLC = test system: EKVX NSCLC
# SW-620 colon = test system: SW-620 colon
# A498 renal = test system: A498 renal
# M14 melanoma = test system: M14 melanoma
# SK-MEL-2 melanoma = test system: SK-MEL-2 melanoma
# LOX IMVI melanoma = test system: LOX IMVI melanoma
# OVCAR-3 ovarian = test system: OVCAR-3 ovarian
# NCI-H23 lung = test system: NCI-H23 lung
# T-47D breast = test system: T-47D breast
# KM12 colon = test system: KM12 colon
# U251 CNS = test system: U251 CNS
# NCI-H460 lung = test system: NCI-H460 lung
# CCRF-CEM leukemia = test system: CCRF-CEM leukemia
# HT29 colon = test system: HT29 colon
# MDA-MB-231 breast = test system: MDA-MB-231 breast
# K-562 leukemia = test system: K-562 leukemia
# SK-OV-3 ovarian = test system: SK-OV-3 ovarian
# OVCAR-5 ovarian = test system: OVCAR-5 ovarian
# MOLT-4 leukemia = test system: MOLT-4 leukemia
# HCT-15 colon = test system: HCT-15 colon
# SNB-75 CNS = test system: SNB-75 CNS
# SR leukemia = test system: SR leukemia
# HL-60(TB) leukemia = test system: HL-60(TB) leukemia
# RPMI-8226 leukemia = test system: RPMI-8226 leukemia
# MALME-3M melanoma = test system: MALME-3M melanoma
structure (smiles),measurement,setting,value
C#CC[C@@H]1C[C@]2(C)[C@H]3CC[C@@H]4[C@H]5C(C(=C)C)CC[C@]5(C(=O)NCCN(CCN)CCN)CC[C@@]4(C)[C@]3(C)CC[C@H]2C(C)(C)[C@H]1OC(C)=O (some centres undefined),GI50,OVCAR-4 ovarian,2.35 µM
same,TGI,OVCAR-4 ovarian,5.32 µM
same,GI50,NCI-H226 lung,2.06 µM
same,TGI,NCI-H226 lung,4.69 µM
CCc1c(O)cc(=O)oc1-c1ccc(OC)c(OC)c1,TGI,RXF 393 renal,> 100 µM
same,TGI,UO-31 renal,> 100 µM
same,TGI,786-0 renal,> 100 µM
same,TGI,SF-295 CNS,> 100 µM
same,TGI,MCF7 breast,> 100 µM
same,TGI,HCT-116 colon,> 100 µM
same,TGI,HOP-62 NSCLC,> 100 µM
same,TGI,IGROV1 ovarian,> 100 µM
same,TGI,DU-145 prostate,> 100 µM
same,TGI,COLO 205 colon,> 100 µM
same,TGI,PC-3 prostate,> 100 µM
same,TGI,SF-268 CNS,> 100 µM
same,TGI,SN12C renal,> 100 µM
same,TGI,BT-549 breast,> 100 µM
same,TGI,SK-MEL-28 melanoma,> 100 µM
same,TGI,HS 578T breast,> 100 µM
same,TGI,ACHN renal,> 100 µM
same,TGI,CAKI-1 renal,> 100 µM
same,TGI,SNB-19 CNS,> 100 µM
same,TGI,UACC-257 melanoma,> 100 µM
same,TGI,UACC-62 melanoma,> 100 µM
same,TGI,TK-10 renal,> 100 µM
same,TGI,HOP-92 NSCLC,> 100 µM
same,TGI,NCI-H522 lung,> 100 µM
same,TGI,HCC-2998 colon,> 100 µM
same,TGI,A549 NSCLC,> 100 µM
same,TGI,SK-MEL-5 melanoma,> 100 µM
same,TGI,SF-539 CNS,> 100 µM
same,TGI,OVCAR-8 ovarian,> 100 µM
same,TGI,MDA-MB-435,> 100 µM
same,TGI,NCI/ADR-RES ovarian,> 100 µM
same,TGI,EKVX NSCLC,> 100 µM
same,TGI,SW-620 colon,> 100 µM
same,TGI,A498 renal,> 100 µM
same,TGI,M14 melanoma,> 100 µM
same,TGI,SK-MEL-2 melanoma,> 100 µM
same,TGI,LOX IMVI melanoma,> 100 µM
same,TGI,OVCAR-3 ovarian,> 100 µM
same,TGI,NCI-H23 lung,> 100 µM
same,TGI,T-47D breast,> 100 µM
same,TGI,KM12 colon,> 100 µM
same,TGI,U251 CNS,> 100 µM
same,TGI,OVCAR-4 ovarian,> 100 µM
same,TGI,NCI-H460 lung,> 100 µM
same,TGI,CCRF-CEM leukemia,> 100 µM
same,TGI,HT29 colon,> 100 µM
same,TGI,MDA-MB-231 breast,> 100 µM
same,TGI,K-562 leukemia,> 100 µM
same,TGI,SK-OV-3 ovarian,> 100 µM
same,TGI,OVCAR-5 ovarian,> 100 µM
same,TGI,MOLT-4 leukemia,> 100 µM
same,TGI,HCT-15 colon,> 100 µM
same,TGI,SNB-75 CNS,> 100 µM
O=C(NCCNCCO)c1ccc2c(c1)oc1cc3ccccc3c(=O)n12,GI50,RXF 393 renal,14.2 µM
same,TGI,RXF 393 renal,> 50 µM
same,GI50,UO-31 renal,16.6 µM
same,TGI,UO-31 renal,> 50 µM
same,GI50,786-0 renal,> 50 µM
same,TGI,786-0 renal,> 50 µM
same,GI50,SF-295 CNS,> 50 µM
same,TGI,SF-295 CNS,> 50 µM
same,GI50,MCF7 breast,31.1 µM
same,TGI,MCF7 breast,> 50 µM
same,GI50,HCT-116 colon,22.8 µM
same,TGI,HCT-116 colon,> 50 µM
same,GI50,HOP-62 NSCLC,> 50 µM
same,TGI,HOP-62 NSCLC,> 50 µM
same,GI50,IGROV1 ovarian,16.5 µM
same,TGI,IGROV1 ovarian,> 50 µM
same,GI50,DU-145 prostate,41.2 µM
same,TGI,DU-145 prostate,> 50 µM
same,GI50,COLO 205 colon,18.9 µM
same,TGI,COLO 205 colon,47.3 µM
same,GI50,PC-3 prostate,35.5 µM
same,TGI,PC-3 prostate,> 50 µM
same,GI50,SR leukemia,24.8 µM
same,TGI,SR leukemia,> 50 µM
same,GI50,HL-60(TB) leukemia,25.6 µM
same,TGI,HL-60(TB) leukemia,> 50 µM
same,GI50,SF-268 CNS,19.6 µM
same,TGI,SF-268 CNS,> 50 µM
same,GI50,SN12C renal,29.1 µM
same,TGI,SN12C renal,> 50 µM
same,GI50,BT-549 breast,18.8 µM
same,TGI,BT-549 breast,> 50 µM
same,GI50,SK-MEL-28 melanoma,> 50 µM
same,TGI,SK-MEL-28 melanoma,> 50 µM
same,GI50,ACHN renal,19 µM
same,TGI,ACHN renal,> 50 µM
same,GI50,SNB-19 CNS,> 50 µM
same,TGI,SNB-19 CNS,> 50 µM
same,GI50,UACC-257 melanoma,19.6 µM
same,TGI,UACC-257 melanoma,> 50 µM
same,GI50,UACC-62 melanoma,> 50 µM
same,TGI,UACC-62 melanoma,> 50 µM
same,GI50,TK-10 renal,1.48 µM
same,TGI,TK-10 renal,19.6 µM
same,GI50,HOP-92 NSCLC,37.6 µM
same,TGI,HOP-92 NSCLC,> 50 µM
same,GI50,NCI-H522 lung,18.2 µM
same,TGI,NCI-H522 lung,> 50 µM
same,GI50,A549 NSCLC,16.2 µM
same,TGI,A549 NSCLC,> 50 µM
same,GI50,SK-MEL-5 melanoma,12.6 µM
same,TGI,SK-MEL-5 melanoma,32.1 µM
same,GI50,SF-539 CNS,16.2 µM
same,TGI,SF-539 CNS,33.2 µM
same,GI50,OVCAR-8 ovarian,15.7 µM
same,TGI,OVCAR-8 ovarian,> 50 µM
same,GI50,MDA-MB-435,> 50 µM
same,TGI,MDA-MB-435,> 50 µM
same,GI50,NCI/ADR-RES ovarian,> 50 µM
same,TGI,NCI/ADR-RES ovarian,> 50 µM
same,GI50,EKVX NSCLC,37.8 µM
same,TGI,EKVX NSCLC,> 50 µM
same,GI50,SW-620 colon,18.1 µM
same,TGI,SW-620 colon,> 50 µM
same,GI50,M14 melanoma,> 50 µM
same,TGI,M14 melanoma,> 50 µM
same,GI50,SK-MEL-2 melanoma,12.8 µM
same,TGI,SK-MEL-2 melanoma,44.7 µM
same,GI50,LOX IMVI melanoma,17.4 µM
same,TGI,LOX IMVI melanoma,40.6 µM
same,GI50,NCI-H23 lung,22.5 µM
same,TGI,NCI-H23 lung,> 50 µM
same,GI50,T-47D breast,24.7 µM
same,TGI,T-47D breast,> 50 µM
same,GI50,KM12 colon,9.32 µM
same,TGI,KM12 colon,> 50 µM
same,GI50,U251 CNS,14.7 µM
same,TGI,U251 CNS,42.6 µM
same,GI50,OVCAR-4 ovarian,> 50 µM
same,TGI,OVCAR-4 ovarian,> 50 µM
same,GI50,NCI-H460 lung,25.4 µM
same,TGI,NCI-H460 lung,> 50 µM
same,GI50,HT29 colon,29.4 µM
same,TGI,HT29 colon,> 50 µM
same,GI50,MDA-MB-231 breast,29.8 µM
same,TGI,MDA-MB-231 breast,> 50 µM
same,GI50,K-562 leukemia,46.7 µM
same,TGI,K-562 leukemia,> 50 µM
same,GI50,RPMI-8226 leukemia,33.8 µM
same,TGI,RPMI-8226 leukemia,> 50 µM
same,GI50,SK-OV-3 ovarian,> 50 µM
same,TGI,SK-OV-3 ovarian,> 50 µM
same,GI50,MALME-3M melanoma,19.7 µM
same,TGI,MALME-3M melanoma,> 50 µM
same,GI50,MOLT-4 leukemia,44.3 µM
same,TGI,MOLT-4 leukemia,> 50 µM
same,GI50,HCT-15 colon,38.4 µM
same,TGI,HCT-15 colon,> 50 µM
same,GI50,SNB-75 CNS,15 µM
same,TGI,SNB-75 CNS,44.4 µM
O=C(NCc1cccc(CNC(=O)Nc2nc3ccccc3[nH]2)c1)Nc1nc2ccccc2[nH]1,GI50,HOP-62 NSCLC,1.95 µM
same,TGI,HOP-62 NSCLC,4.92 µM
same,GI50,HL-60(TB) leukemia,> 100 µM
same,TGI,HL-60(TB) leukemia,> 100 µM
same,GI50,ACHN renal,4.16 µM
same,TGI,ACHN renal,> 100 µM
same,GI50,CAKI-1 renal,> 100 µM
same,TGI,CAKI-1 renal,> 100 µM
same,GI50,HOP-92 NSCLC,1.25 µM
same,TGI,HOP-92 NSCLC,3.26 µM
same,GI50,NCI/ADR-RES ovarian,> 100 µM
same,TGI,NCI/ADR-RES ovarian,> 100 µM
same,GI50,A498 renal,2.07 µM
same,TGI,A498 renal,5.11 µM
same,GI50,SK-MEL-2 melanoma,2.36 µM
same,TGI,SK-MEL-2 melanoma,7.1 µM
same,GI50,T-47D breast,3.33 µM
same,TGI,T-47D breast,> 100 µM
same,GI50,HCT-15 colon,> 100 µM
same,TGI,HCT-15 colon,> 100 µM
same,GI50,SNB-75 CNS,1.58 µM
same,TGI,SNB-75 CNS,4.18 µM
